In patent US20050004018A1, “Use of antitumoral compound in cancer therapy” (priority 2001, published 2005):
Where two headings read alike, the source gives them in different places.

Columns and labels:
cancer patients = assay: phase I clinical trial, 3 hours iv infusion weekly for 3 consecutive weeks every 4 weeks; format: in vivo, human
Procedure: A phase I clinical trial was carried out with the following protocol:
Dose schedule: ET-743 will be administered every week as a 3hours iv infusion for 3 consecutive weeks every 4 weeks.
Starting dose and dose escalation: The starting dose will be 300 μg/m^2 weekly of ET-743 given as a intravenous infusion over 3 hours for 3 consecutive weeks every 4 weeks. Patients will be sequentially enrolled into the following dose cohorts beginning at dose Level 1. A minimum cohort size of 3 patients will be treated at each of the dose levels.
Accrual at the next higher dose level: At least 1 patient at each dose level must have completed 1 cycle of therapy and two patients must have completed treatment on day 15 before a new patient can be treated at the next highest dose. Conditions for retreatment: Patients are eligible for retreatment […] intolerable toxicity, the patient desires further treatment, and fulfill the eligibility criteria. Dose Limiting Toxicities (DLTs)
Dose limiting toxicities (DLT) will be defined as follows: • ANC <500/μL for longer than 5 days. • ANC <500/μL accompanied by fever (at least 100.5° F.). • Platelets <25,000/μL. • Any grade 3-4 nonhematological toxicity except nausea/vomiting (provided the patient is receiving an optimal antiemetic regimen consisting of dexamethasone and a serotonin antagonist on an optimal dose-schedule for prophylaxis and management), alopecia. Grade 3 or 4 elevation in trasaminases that result in either omission of 2 scheduled treatments within a cycle or delay in the initiation of a subsequent course exceeding 2 weeks. • Missing at least 2 scheduled treatments during a single course due to drug-induced toxicity (missed doses will not be made up). • Delay in the initiation of a subsequent course of treatment exceeding 2 weeks. Determination of the Maximum Tolerated Dose (MTD)
Cohort of 3 patients will be treated at each dose level. If no DLT is seen during the first cycle in the cohort of patients at any given dose level, new patients may be treated at the next higher level.
If any patient encounters drug-induced DLT during either cycle 1 or 2, a maximum of 6 patients may be treated at that level. If DLT is not observed in the additional patients, new patients may be treated at the next higher dose level.
If at least 2 patients experience DLT at any given dose level, this dose level will be considered the Maximum Tolerated Dose (MTD). However, it is possible that additional patients may experience DLT due to the timing of patient enrollment into that dose level.
Once an MTD level is established, subsequent patients should be treated at the next lower dose level. Intermediate doses may be used in some instances and flexibility is an integral part of the protocol. If two or more patients experience DLT at the lower dose level, then the MTD has again been established and additional patients will be treated at the next lower dose (unless sufficient numbers of patients have already been treated at that dose level).
The RD is defined as the highest dose level at which less than 2 of 6 patients experience DLT during cycles 1 or 2. At the RD, sufficient numbers of patients will be accrued so at least 6 patients receive at least 2 cycles of therapy, and at least 4 patients receive at least 4 courses of treatment.
This trial was launched in May 00 and last patient was included in March 02. 31 patients were treated.
Tumours included: Sarcomas (19), UOT (1), Lung (1), Ovary (4), Breast (2), Uterus (1), Melanoma (2), Colorectal (1)

mice = details: single or fractionated dose, intravenous; cited from earlier work
cynomolgus monkeys = details: cited from earlier work
murine progenitor cells = details: cited from earlier work
[1] = 3 hour weekly ×3/4 weeks infusion, per patient, number (%)

Substance: ecteinascidin 743 [ET-743]
- G3 transaminases (cancer patients; 29 patients evaluated): 10%
- ALT G2(%) (cancer patients; [1]): 9(31) %
- ALT G3(%) (cancer patients; [1]): 3(10.3) %
- ALT G4(%) (cancer patients; [1]): 0%
- Alk Phos G2(%) (cancer patients; [1]): 1(3.4) %
- Alk Phos G3(%) (cancer patients; [1]): 2(6.9) %
- Alk Phos G4(%) (cancer patients; [1]): 0%
- Bilirubin G2(%) (cancer patients; [1]): 0%
- Bilirubin G3(%) (cancer patients; [1]): 1(3.4) %
- Bilirubin G4(%) (cancer patients; [1]): 0%
- Creatine Kinase G2(%) (cancer patients; [1]): 1(3.4) %
- Creatine Kinase G3(%) (cancer patients; [1]): 0%
- Creatine Kinase G4(%) (cancer patients; [1]): 1(3.4) %
- Creatinine G2(%) (cancer patients; [1]): 1(3.4) %
- Creatinine G3(%) (cancer patients; [1]): 0%
- Creatinine G4(%) (cancer patients; [1]): 0%
- Hemoglobin G2(%) (cancer patients; [1]): 9(31) %
- Hemoglobin G3(%) (cancer patients; [1]): 1(3.4) %
- Hemoglobin G4(%) (cancer patients; [1]): 0%
- Neutrophils G2(%) (cancer patients; [1]): 1(3.4) %
- Neutrophils G3(%) (cancer patients; [1]): 2(6.9) %
- Neutrophils G4(%) (cancer patients; [1]): 1(3.4) %
- Platelets G2(%) (cancer patients; [1]): 1(3.4) %
- Platelets G3(%) (cancer patients; [1]): 0%
- Platelets G4(%) (cancer patients; [1]): 0%
- Grade 3-4 ALT (cancer patients; Weekly schedule): 10.3%
- Grade 3-4 Bilirubin (cancer patients; Weekly schedule): 3.4%
- Grade 3-4 Creatinine (cancer patients; Weekly schedule): 0%
- Grade 3-4 Creatinine Kinase (cancer patients; Weekly schedule): 3.4%
- Grade 3-4 Hemoglobin (cancer patients; Weekly schedule): 3.4%
- Grade 3-4 Neutrophils (cancer patients; Weekly schedule): 10.3%
- Grade 3-4 Platelets (cancer patients; Weekly schedule): 0%
- Serious renal toxicity (G3-4) (cancer patients; Weekly schedule): has not been seen
- DLT defining the MTD (cancer patients; at the 4th level (650)): Long lasting grade 3 neutropenia, and g3 Bilirubin toxicity
- long lasting stabilizations (cancer patients; ovarian cancer): 2
- minor responses (cancer patients; patients with sarcoma): 2
- grade 3-4 neutropenia (cancer patients; per patient, 29 patients evaluated): 10.3%
- long lasting stabilizations (cancer patients; sarcoma): 2
- reduction of the most frequent toxicities (cancer patients; weekly schedule vs previous schedules): more than 3 times
- MTD (cancer patients; weekly×3/4 weeks, 3 hour infusion): 650 mcg/sm
- recommended dose (cancer patients; ×3 every 4 weeks, 3 hour infusion): 580 mcg/sm
- toxicity (mice): reversible hematological and hepatic toxicity
- toxicity (cynomolgus monkeys; fractionated dosing): only minor toxicity
- toxicity (cynomolgus monkeys; single doses): hepatic and hematological toxicity, emesis and diarrhoea
- sensitivity of progenitor cells (murine progenitor cells): equal sensitivity of erythropoid and myeloid cells
